Data reported in PMC6600163, “Inhibitory Effects of Diketopiperazines from Marine-Derived Streptomyces puniceus on the Isocitrate Lyase of Candida albicans” (Molecules, 2019).
≈ marks a conversion by molar mass, not a printed value. Where “and” joins values, the source holds several entries; their conditions need not be identical. Identical values can stand only once. Entries after “also recorded” stand apart in the source; their conditions may differ. Like-named read-outs stand apart in the source and are kept apart here.

Legend:
[1] = molecular target: T1, recombinant ICL (isocitrate lyase) from C. albicans ATCC10231 (Candida albicans, UniProt Q9P8Q7); assay: biochemical
T1 construct: made in house
T1 sequence (Q9P8Q7 whole entry): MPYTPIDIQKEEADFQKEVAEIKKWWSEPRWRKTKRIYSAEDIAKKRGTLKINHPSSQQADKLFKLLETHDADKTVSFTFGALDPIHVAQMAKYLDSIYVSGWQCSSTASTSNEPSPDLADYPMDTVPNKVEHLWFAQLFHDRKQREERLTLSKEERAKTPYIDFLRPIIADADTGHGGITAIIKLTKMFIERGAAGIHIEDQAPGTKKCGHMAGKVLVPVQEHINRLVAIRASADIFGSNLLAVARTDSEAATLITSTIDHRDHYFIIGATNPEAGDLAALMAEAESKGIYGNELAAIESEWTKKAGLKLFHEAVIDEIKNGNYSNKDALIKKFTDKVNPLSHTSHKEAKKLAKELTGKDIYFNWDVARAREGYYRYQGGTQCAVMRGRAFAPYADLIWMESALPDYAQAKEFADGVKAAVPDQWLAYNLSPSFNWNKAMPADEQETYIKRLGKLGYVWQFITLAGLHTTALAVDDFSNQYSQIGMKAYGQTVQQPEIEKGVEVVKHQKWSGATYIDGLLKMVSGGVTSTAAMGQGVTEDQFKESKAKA
Procedure: Isolated diketopiperazines were tested for ICL inhibitory activity according to methods reported previously. […] To determine the type of inhibition, kinetic analysis was performed with cyclo(L-Phe-L-Val) (inhibitor) and phenylhydrazine […]. The inhibitor constant (Ki) was calculated from the Dixon plot.
S. puniceus Act1085 was used as the diketopiperazine-producing strain. C. albicans SC5314 (ATCC MYA-2876) (wild-type), MRC10 (Δicl) (icl-deletion mutant), MRC11 (Δicl + ICL) (icl-deletion mutant), […], ATCC18804, and ATCC11006 were used for the growth assay. C. albicans ATCC10231 was used to obtain recombinant ICL. Prof. Michael C. Lorenz (University of Texas Health Science Center, Houston, TX, USA) kindly provided the ICL mutants.
Before evaluation of the ICL inhibitory activity of the test compounds, the recombinant ICL from C. albicans was prepared according to methods described in a previous report. The ICL inhibitory activity of the test compounds was determined according to a previously described method. The ICL inhibition assay is based on the principle that glyoxylate phenylhydrazone forms in the reaction reagent after treatment with isocitrate and phenylhydrazine. Each test compound was dissolved in DMSO. The reaction mixture consisted of 20 mM sodium phosphate buffer (pH 7.0), 1.27 mM threo-DL(+)isocitrate, 3.75 mM MgCl2, 4.1 mM phenylhydrazine, and 2.5 μg/mL purified ICL and was incubated with or without the test compounds at a concentration range of 1–128 μg/mL at 37 °C for 30 min. The increase in intensity of absorbance resulting from the formation of glyoxylate phenylhydrazone was observed using a spectrophotometer (Shimadzu) at a wavelength of 324 nm. The inhibitory activity of the test compound was calculated relative to that of the DMSO control (n = 3). The methods for determination of the IC50 value and ICL enzyme concentrations have been described in previous reports. A known ICL inhibitor, 3-nitropropionate, was used as a reference control.

C. albicans SC5314 = assay: In vitro growth assay (MIC) in YNB broth; type: cell-based, Candida albicans; conditions: 28 °C
Excerpt: (§1) The glyoxylate cycle is necessary for virulence in C. albicans, which can survive in macrophages under abundant carbon sources, such as fatty acids or their breakdown products. When C. albicans is phagocytosed by a macrophage, the shift in metabolism from glycolysis to the glyoxylate cycle is activated so that the cells can utilize C2 carbon sources. It was expected that ICL inhibitors would reduce the nutrient uptake capacity and impede survival of the pathogen in the macrophage. To determine whether cyclo(L-Phe-L-Val) affects C2 substrate use, C. albicans strains SC5314, ATCC10231, ATCC10259, ATCC11006, and ATCC18804 were grown in YNB liquid broth containing either 2% glucose or 2% acetate as the sole carbon source.
(§2) C. albicans strains were cultured in YNB broth containing 2% glucose at 28 °C for 24 h, centrifuged at 15,000× g for 1 min, and washed twice with sterile distilled water. […] Additional DMSO was added to the medium at a final concentration of 0.5%. The fungal strain culture (20 μL) was poured into a 96-well assay plate at a final concentration of 1 × 10^4 cells/mL and total volume of 100 μL. The culture plates were incubated at 28 °C for 3 days. The positive control was amphotericin B, which is a known antifungal compound.

C. albicans ATCC10231 = assay: In vitro growth assay (MIC) in YNB broth; type: cell-based; conditions: Candida albicans, ATCC10231, 72 h, 28 °C
Excerpt: as §1, §2

C. albicans ATCC10259 = assay: In vitro growth assay (MIC) in YNB broth; type: cell-based; conditions: Candida albicans, ATCC10259, 72 h, 28 °C
Excerpt: as §1, §2

C. albicans ATCC11006 = assay: In vitro growth assay (MIC) in YNB broth; type: cell-based; conditions: Candida albicans, ATCC11006, 72 h, 28 °C
Excerpt: as §1, §2

C. albicans ATCC18804 = assay: In vitro growth assay (MIC) in YNB broth; type: cell-based; conditions: Candida albicans, ATCC18804, 72 h, 28 °C
Excerpt: as §1, §2

[2] = tested on: C. albicans strains SC5314, ATCC10231, ATCC10259, ATCC11006, and ATCC18804; assay: In vitro growth assay, summary over five strains; type: cell-based, Candida albicans
Excerpt: as §1, §2

[3] = tested on: C. albicans SC5314 (wild type) and icl-deletion mutants (MRC10 and MRC11); assay: Growth phenotype on YNB agar plates; type: cell-based, Candida albicans; conditions: 2 days, 28 °C
Procedure: (§3) To determine whether the cell phenotype of the icl-deletion mutant is affected by the presence of cyclo(L-Phe-L-Val), a growth assay was conducted using C. albicans SC5314 (wild type) and two icl-deletion mutants (MRC10 and MRC11). After pre-culture, these strains were streaked onto YNB agar containing 2% glucose or 2% potassium acetate with or without 32 μg/mL cyclo(L-Phe-L-Val). All strains grew normally on both the plates with glucose and with glucose plus the compound. […] We further conducted semi-quantitative reverse-transcription (RT)-PCR to assess the effects of cyclo(L-Phe-L-Val) on ICL expression. No ICL-specific PCR product was detected in the cultures when SC5314 and MRC11 were grown in YNB liquid broth containing glucose. […] GPDH expression was detected in all treatments regardless of cyclo(L-Phe-L-Val) exposure.
(§4) Figure 3 Analysis of growth phenotypes and icl mRNA expression. […] Total RNA was prepared from these cells, and icl mRNA expression was analyzed by semi-quantitative RT-PCR. The GPDH housekeeping gene was evaluated as a loading control.
(§5) C. albicans SC5314 (wild type) and icl-deletion mutants (MRC10 and MRC11) were cultured in YNB broth containing 2% glucose at 28 °C on a rotary shaker for 24 h. […] RNA extraction, cDNA synthesis, and semi-quantitative RT-PCR were performed using previously described methods. […]

icl mRNA expression = assay: icl expression analysis by semi-quantitative RT-PCR; type: cell-based, Candida albicans; conditions: SC5314 and MRC11, 2% potassium acetate plus 8, 16, 32 μg/mL compound, 4 h, 28 °C
Procedure: as §3, §4, §5

[4] = ICL IC50, 37 °C, 30 min, pH 7.0, n = 3
[5] = Candida albicans, SC5314, 72 h, 2% glucose, read-out: MIC
[6] = Candida albicans, SC5314, 72 h, 2% potassium acetate, read-out: MIC
[7] = Candida albicans, SC5314, 2% glucose, 72 h, read-out: MIC

CC(C)C[C@@H]1NC(=O)[C@@H]2CCCN2C1=O [Cyclo(L-Pro-L-Leu), cyclo(L-Pro-L-Leu)]
IC50 [1, 4]: 534 µM | MIC (C. albicans SC5314; [5]): > 256 µg/mL

O=C(O)CC[N+](=O)[O-] [3-Nitropropionate, reference compound]
ICL IC50 ([1]; 37 °C, 30 min, pH 7.0, n = 3): 1.90 ± 1.57 µg/mL | IC50 ([1]; 37 °C, 30 min, pH 7.0, n = 3, read-out: ICL IC50): 15.9 ± 2.13 µM | MIC (C. albicans SC5314; 2% glucose, 72 h): >256 µg/mL

C[C@@H]1[C@H](O)[C@@H](C)/C=C/C=C/C=C/C=C/C=C/C=C/C=C/[C@H](O[C@@H]2O[C@H](C)[C@@H](O)[C@H](N)[C@@H]2O)C[C@@H]2O[C@](O)(C[C@@H](O)C[C@@H](O)[C@H](O)CC[C@@H](O)C[C@@H](O)CC(=O)O[C@H]1C)C[C@H](O)[C@H]2C(=O)O [Amphotericin B, reference compound]
MIC (C. albicans SC5314; [5]): 1 µg/mL (≈ 1.08 µM) | MIC (C. albicans SC5314; [6]): 0.5 µg/mL (≈ 0.541 µM) | MIC (C. albicans ATCC10231; 2% glucose): 1 µg/mL (≈ 1.08 µM) | MIC (C. albicans ATCC10231; 2% potassium acetate): 0.5 µg/mL (≈ 0.541 µM) | MIC (C. albicans ATCC10259; 2% glucose): 1 µg/mL (≈ 1.08 µM) | MIC (C. albicans ATCC10259; 2% potassium acetate): 0.5 µg/mL (≈ 0.541 µM) | MIC (C. albicans ATCC11006; 2% glucose): 0.5 µg/mL (≈ 0.541 µM) | MIC (C. albicans ATCC11006; 2% potassium acetate): 0.5 µg/mL (≈ 0.541 µM) | MIC (C. albicans ATCC18804; 2% glucose): 1 µg/mL (≈ 1.08 µM) | MIC (C. albicans ATCC18804; 2% potassium acetate): 0.5 µg/mL (≈ 0.541 µM)

CC(C)C1NC(=O)C(Cc2ccccc2)NC1=O [Cyclo(L-Phe-L-Val), cyclo(L-Phe-L-Val)]
Ki [1]: 64.9 µM | IC50 [1, 4]: 110 µM and 113 µM | type of inhibition ([1]; kinetic analysis): mixed inhibitor | MIC (C. albicans SC5314; [5]): > 256 µg/mL | MIC (C. albicans SC5314; [6]): 32 µg/mL (≈ 130 µM) | MIC (C. albicans ATCC10231; 2% glucose): > 256 µg/mL | MIC (C. albicans ATCC10231; 2% potassium acetate): 32 µg/mL (≈ 130 µM) | MIC (C. albicans ATCC10259; 2% glucose): > 256 µg/mL | MIC (C. albicans ATCC10259; 2% potassium acetate): 64 µg/mL (≈ 260 µM) | MIC (C. albicans ATCC11006; 2% glucose): > 256 µg/mL | MIC (C. albicans ATCC11006; 2% potassium acetate): 32 µg/mL (≈ 130 µM) | MIC (C. albicans ATCC18804; 2% glucose): > 256 µg/mL | MIC (C. albicans ATCC18804; 2% potassium acetate): 64 µg/mL (≈ 260 µM) | MIC ([2]; Candida albicans, acetate as sole carbon source, range over five strains, read-out: minimum inhibitory concentration): 32 to 64 µg/mL (≈ 130 to 260 µM) | inhibitory effect on C. albicans growth ([2]; glucose as sole carbon source): no inhibitory effect | growth on YNB agar ([3]; 2% glucose plus 32 μg/mL compound): grew normally | growth on YNB agar ([3]; 2% potassium acetate plus 32 μg/mL compound): none of the tested strains exhibited growth; also recorded: no growth | intensity of PCR band of icl product (icl transcript level) (icl mRNA expression): decreased; also recorded: declined

O=C1NC(Cc2ccc(O)cc2)C(=O)N2CCCC12 [Cyclo(L-Pro-L-Tyr), cyclo(L-Pro-L-Tyr)]
IC50 [1, 4]: > 984 µM | MIC (C. albicans SC5314; [7]): > 256 µg/mL

CC(C)[C@@H]1NC(=O)[C@@H]2CCCN2C1=O [Cyclo(L-Pro-L-Val), cyclo(L-Pro-L-Val)]
IC50 [1, 4]: 516 µM | MIC (C. albicans SC5314; [5]): > 256 µg/mL

O=C1N[C@@H](Cc2ccccc2)C(=O)N2CCC[C@@H]12 [Cyclo(L-Phe-L-Pro), cyclo(L-Phe-L-Pro)]
MIC (C. albicans SC5314; [7]): > 256 µg/mL
